Reference: patent USRE47193E1, “Selectively substituted quinoline compounds” (EISAI R&D MANAGEMENT CO., LTD., priority 2013, dated 2019)
Like-named read-outs stand apart in the source and are kept apart here.

Assays:
human TLR8 = biological target: T1, human TLR8 (Homo sapiens, UniProt Q9NR97); experiment: HEK-293 human TLR8 NF-kappaB luciferase reporter assay (CL097); format: cell-based
T1 construct: host or cells: HEK-293, then stably transfected with pNiFty2(NF-kappaB)-luciferase reporter
T1 sequence (Q9NR97 27-1041): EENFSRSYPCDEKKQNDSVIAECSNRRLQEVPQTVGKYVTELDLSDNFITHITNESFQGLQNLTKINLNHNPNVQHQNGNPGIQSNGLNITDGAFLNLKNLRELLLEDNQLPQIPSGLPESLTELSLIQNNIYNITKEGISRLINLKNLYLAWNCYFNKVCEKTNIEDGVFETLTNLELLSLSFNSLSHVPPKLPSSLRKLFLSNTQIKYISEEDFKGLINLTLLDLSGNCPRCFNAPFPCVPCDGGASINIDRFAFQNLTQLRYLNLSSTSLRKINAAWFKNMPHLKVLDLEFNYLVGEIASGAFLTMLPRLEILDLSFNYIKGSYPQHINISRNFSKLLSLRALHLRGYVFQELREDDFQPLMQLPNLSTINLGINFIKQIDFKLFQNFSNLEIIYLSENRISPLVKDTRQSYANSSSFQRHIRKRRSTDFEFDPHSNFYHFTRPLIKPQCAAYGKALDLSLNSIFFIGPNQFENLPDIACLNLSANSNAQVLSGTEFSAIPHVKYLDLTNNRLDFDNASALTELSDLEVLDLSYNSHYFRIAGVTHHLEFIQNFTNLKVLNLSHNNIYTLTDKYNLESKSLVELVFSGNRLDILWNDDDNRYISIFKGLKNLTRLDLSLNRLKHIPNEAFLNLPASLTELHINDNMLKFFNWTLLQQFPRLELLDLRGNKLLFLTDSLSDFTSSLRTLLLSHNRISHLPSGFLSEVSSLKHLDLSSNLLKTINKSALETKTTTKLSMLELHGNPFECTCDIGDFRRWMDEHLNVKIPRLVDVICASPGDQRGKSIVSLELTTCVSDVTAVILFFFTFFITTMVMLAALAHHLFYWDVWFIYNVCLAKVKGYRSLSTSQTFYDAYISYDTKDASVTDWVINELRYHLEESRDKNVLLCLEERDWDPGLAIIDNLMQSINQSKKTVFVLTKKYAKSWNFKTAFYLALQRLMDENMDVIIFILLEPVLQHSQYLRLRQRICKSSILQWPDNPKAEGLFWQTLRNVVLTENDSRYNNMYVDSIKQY
Protocol: Effects on mouse TLR7 were also compared. Cells were stimulated overnight with TLR7/8 agonist CL097 at pre-determined ED70-80: 3 ug/ml for HEK-hTLR7, 1.5 ug/ml for HEK-mTLR7 and 12 ug/ml for HEK-hTLR8, before reading luminescence intensity. Three tests were performed and IC50 value was determined using Graphpad Prism 6 nonlinear regression curve fit.
HEK-293 cells (ATCC) were engineered to stably express a NF-kappaB transcription factor inducible E-selectin (ELAM-1) luciferase reporter derived from the plasmid pGL3 (Promega) containing base pairs −2241 bp to −254 bp from the promoter of the human E-selectin gene (Accession No. NM_000450). These cells were then subsequently engineered to stably and individually express human TLR4, TLR7 or TLR9 full-length ORF cDNAs. Human TLR4 cDNA (Accession No. NM_138554) was cloned into pcDNA 3.0 expression vector (Invitrogen). TLR4 transfected cells were also engineered to express human MD-2 co-receptor [MD-2 cDNA (Accession No. NM_015364) was cloned into the pEF-BOS vector] and were supplemented with 10 nM soluble CD14 (R&D Systems) in the media to optimize LPS responsiveness. Human TLR9 cDNA (Accession No. NM_017442) was cloned into the pBluescript II KS vector (Agilent). Human TLR7 cDNA (Accession No. NM_016562) was obtained from OriGene. HEK-293 cells stably expressing human TLR8 (Accession No. NM_138636) or mouse TLR7 (Accession No. NM_133211) were purchased from InvivoGen and were then stably transfected with pNiFty2(NF-kappaB)-luciferase reporter plasmid (InvivoGen). Each cell type was plated in Dulbecco's modified Eagle's medium (DMEM) containing 10% fetal bovine serum (FBS) at a density of 2.22×10^5 cells/ml into a 384-well plate and incubated for 2 days at 37° C., 5% CO2. Varying concentrations of antagonist compounds were then added. Cells were then incubated for another 30 minutes before adding the appropriate TLR agonist as follows (final concentrations indicated): lipopolysaccharide (LPS; Sigma) at 10 ng/ml for TLR4, CL097 (InvivoGen) at 3 ug/ml for human TLR7 and TLR8 and mouse TLR7, and CvG-2006-2A [sequence: […] (SEQ ID NO: 1) with phosphorothioate backbone, synthesized by Sigma-Aldrich] at 0.6 uM for TLR9.

Human TLR7/8 = experiment: Human PBMC cell-based assay, TLR7/8 stimulus (RNA-Ig), cytokine ELISA; details: primary human PBMC assay, TLR7/8 potency; ligand not given; read-out: Human PBMCs IC50
Procedure, shortened: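 Healthy-donor human PBMC, 2×10^5 cells/well (1×10^5 in later assay), pre-treated 30 min with compound (0.1% DMSO). Stimulated 20 h at 37 °C with RNA-Ig: 26-mer U1 snRNA stem loop IV phosphorothioate RNA at 2.5 μM plus anti-ssDNA antibody (1:25 or 1 ug/ml). Supernatant cytokines by ELISA.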

[1] = HEK-293 assay format, read-out: HEK/hTLR8 IC50

Row | Structure (SMILES) | IC50 (human TLR8; [1]) | IC50 (Human TLR7/8) | IC50 (human TLR8; HEK/hTLR8 IC50, HEK-293 assay format)
1 | CC1CN(c2ccc(C#N)c3ncccc23)CC(CN2CCCC2C(C)C)O1 (mixture of isomers) [ER-886816] | 107 nM |  | 
2 | CC1CN(c2ccc(C#N)c3ncccc23)CC(CNC2CCCC2O)O1 (mixture of isomers) [ER-887528] | 135 nM | 56 nM | 
3 | C=CC(O)[C@H]1CN(c2ccc(C#N)c3ncccc23)C[C@@H](C)O1 (single isomer, unassigned) [ER-886431] | 31 nM |  | 
4 | CCCCC(O)C1CN(c2ccc(C#N)c3ncccc23)CC(C)O1 (single isomer, unassigned) [ER-886530] | 5 nM |  | 
5 | CC1CN(c2ccc(C#N)c3ncccc23)CC(C(O)C2CCCCC2)O1 (single isomer, unassigned) [ER-886532] | 30 nM |  | 
6 | CC1CN(c2ccc(C#N)c3ncccc23)CC(C(O)C2CCCCC2)O1 (single isomer, unassigned) [ER-886533] | 14 nM |  | 
7 | CC1CN(c2ccc(C#N)c3ncccc23)CC(C(O)CCc2ccccc2)O1 (single isomer, unassigned) [ER-886567] | 5 nM | 22 nM | 
8 | CC1CN(c2ccc(C#N)c3ncccc23)CC(C(O)CCc2ccccc2)O1 (single isomer, unassigned) [ER-886568] | 5 nM | 79 nM | 
9 | N#Cc1ccc(N2CCOC(CCl)C2)c2cccnc12 (centres unmarked) [ER-879484] | 18 nM |  | 
10 | C[C@@H]1CN(c2ccc(C#N)c3ncccc23)C[C@H](CNC(=O)C(C)(C)C)O1 [ER-879713] | 80 nM |  | 
11 | C[C@H]1CN(c2ccc(C#N)c3ncccc23)C[C@H](C)O1 [ER-880191] | 10 nM |  | 
12 | COc1ccc(N2C[C@@H](C)O[C@@H](C)C2)c2cccnc12 [ER-885113] | 11 nM |  | 
13 | COC[C@H]1CN(c2ccc(C#N)c3ncccc23)C[C@@H](C)O1 [ER-885612] | 55 nM | 614 nM | 
14 | C[C@@H]1CN(c2ccc(C#N)c3ncccc23)C[C@H](COCc2ccccc2)O1 [ER-885618, 5-((2R,6R)-2-((benzyloxy)methyl)-6-methylmorpholino)quinoline-8-carbonitrile] | 5 nM | 23 nM | 
15 | C[C@@H]1CN(c2ccc(C#N)c3ncccc23)C[C@H](CF)O1 [ER-885621] | 25 nM |  | 
16 | CC(C)COC[C@H]1CN(c2ccc(C#N)c3ncccc23)C[C@@H](C)O1 [ER-885892] | 37 nM |  | 
17 | C[C@@H]1CN(c2ccc(C#N)c3ncccc23)C[C@H](CCl)O1 [ER-885906] | 20 nM | 33 nM | 
18 | C[C@@H]1CN(c2ccc(C#N)c3ncccc23)C[C@H](COCC2CCCCC2)O1 [ER-885930] | 147 nM |  | 
19 | CC[C@@H]1CN(c2ccc(C#N)c3ncccc23)C[C@H](COCc2ccccc2)O1 [ER-886355] | 66 nM | 177 nM | 
20 | C[C@@H]1CN(c2ccc(C#N)c3ncccc23)C[C@H](CN2CCCC2)O1 [ER-886507] | 182 nM |  | 
21 | CCN(CC)C[C@H]1CN(c2ccc(C#N)c3ncccc23)C[C@@H](C)O1 [ER-886508] | 186 nM |  | 
22 | C[C@@H]1CN(c2ccc(C#N)c3ncccc23)C[C@H](CNCc2ccccc2)O1 [ER-886509] |  |  | 119 nM
23 | C[C@@H]1CN(c2ccc(C#N)c3ncccc23)C[C@H](COc2ccccc2)O1 [ER-886514] | 5 nM |  | 

Row | Structure (SMILES) | IC50 (human TLR8; [1]) | IC50 (Human TLR7/8) | IC50 (human TLR8; HEK/hTLR8 IC50, HEK-293 assay format)
24 | C[C@@H]1CN(c2ccc(C#N)c3ncccc23)C[C@H](COc2ccccc2F)O1 [ER-886624] | 86 nM | 23 nM | 
25 | CCC(=O)[C@H]1CN(c2ccc(C#N)c3ncccc23)C[C@@H](C)O1 [ER-886625] | 10 nM | 91 nM | 
26 | C[C@@H]1CN(c2ccc(C#N)c3ncccc23)C[C@H](C(=O)C2CCCCC2)O1 [ER-886626] | 5 nM | 80 nM | 
27 | C[C@@H]1CN(c2ccc(C#N)c3ncccc23)C[C@H](C(=O)CCc2ccccc2)O1 [ER-886629] | 5 nM |  | 
28 | C[C@@H]1CN(c2ccc(C#N)c3ncccc23)C[C@H](CN2CC[C@@H](c3ccccc3)C2)O1 [ER-886818] | 81 nM |  | 
29 | C[C@@H]1CN(c2ccc(C#N)c3ncccc23)C[C@H](CN2CCC(c3ccccc3)C2)O1 (some centres unmarked) [ER-886854] | 46 nM | 20 nM | 
30 | CC1CCC(C)N1C[C@H]1CN(c2ccc(C#N)c3ncccc23)C[C@@H](C)O1 (some centres unmarked) [ER-886857] | 72 nM | 98 nM | 
31 | COc1ccnc(NC[C@H]2CN(c3ccc(C#N)c4ncccc34)C[C@@H](C)O2)c1 [ER-886858] | 2 nM | 15 nM | 
32 | C[C@@H]1CN(c2ccc(C#N)c3ncccc23)C[C@H](CN2CCC(C)(C)C2)O1 [ER-886869] | 161 nM | 112 nM | 
33 | C[C@@H]1CN(c2ccc(C#N)c3ncccc23)C[C@H](CN2CCC[C@@H](O)C2)O1 [ER-886949] | 78 nM | 32 nM | 
34 | C[C@@H]1CN(c2ccc(C#N)c3ncccc23)C[C@H](CN2CCCCC2CO)O1 (some centres unmarked) [ER-886955] | 83 nM | 129 nM | 
35 | C[C@@H]1CN(c2ccc(C#N)c3ncccc23)C[C@H](CNc2cccnc2)O1 [ER-887138] | 13 nM | 4 nM | 
36 | C[C@@H]1CN(c2ccc(C#N)c3ncccc23)C[C@H](CN2CCC(F)(F)CC2)O1 [ER-887142] | 115 nM | 147 nM | 
37 | C[C@@H]1CN(c2ccc(C#N)c3ncccc23)C[C@H](CN2CCC(c3ccccc3)CC2)O1 [ER-887143] | 148 nM | 13 nM | 
38 | CC1CN(c2ccc(C#N)c3ncccc23)CC(CN2CCC(F)CC2)O1 (centres unmarked) [ER-887144] | 48 nM | 63 nM | 
39 | CC[C@@H]1CN(c2ccc(C#N)c3ncccc23)C[C@H](CO)O1 [ER-887199] | 77 nM | 117 nM | 
40 | C[C@@H]1CN(c2ccc(C#N)c3ncccc23)C[C@H](CN2CCN(c3ccccc3)CC2)O1 [ER-887258] | 175 nM | 55 nM | 
41 | CC(=O)N1CCN(C[C@H]2CN(c3ccc(C#N)c4ncccc34)C[C@@H](C)O2)CC1 [ER-887261] | 77 nM | 120 nM | 
42 | C[C@@H]1CN(C[C@H]2CN(c3ccc(C#N)c4ncccc34)C[C@@H](C)O2)[C@H](C)CN1 [ER-887271] | 1.6 nM | 2 nM | 
43 | C[C@@H]1CN(c2ccc(C#N)c3ncccc23)C[C@H](CN2C[C@H](C)NC[C@H]2C)O1 [ER-887272] | 2.9 nM | 2 nM | 
44 | C[C@@H]1CN(c2ccc(C#N)c3ncccc23)C[C@H](CNC2CCCCCC2)O1 [ER-887444] | 193 nM |  | 
45 | CC1CCCCC1NC[C@H]1CN(c2ccc(C#N)c3ncccc23)C[C@@H](C)O1 (some centres unmarked) [ER-887539] | 0.5 nM |  | 
46 | C[C@@H]1CN(c2ccc(C#N)c3ncccc23)C[C@H](CN2CCC[C@@H](N)C2)O1 [ER-887928] | 11 nM |  | 
